# pIC50: −log10 of the molar value.
# How the values were obtained:
# MDA-MB-231 cells = assay: PARP cleavage assay (Western blotting), MDA-MB-231; type: cell-based; conditions: 6 hours
# Text: (§1) Compound 1a had no effect under the same conditions (FIG. 1A). […] Compound 1a, 28a, 47a, 48a, 73a, 39a, 70a, 103a, 89a and 88a had no effect under the same conditions (FIG. 3B-C).
# HCT116 cancer cells [1] = assay: Cell viability (MTT) assay, HCT116; type: cell-based; conditions: Homo sapiens, HCT-116; inhibiting the growth of HCT116 cancer cells, cell viability assay (Table 5)
# Method: (§2) Cell viability was analyzed by using a colorimetric 3-(4,5-dimethylthiazol-[…]2-yl)-2,5-diphenyletetrazolium Bromide (MTT) assay that determines mitochondrial dehydrogenase activities in the living cells with a colorimetric method. Cells treated with test compounds were incubated with MTT and their effect on the viability of the cells was assayed by the ability of treated cells to reduce the yellow tetrazolium dye MTT to its insoluble formazan, which has a purple color. […]
# HCT116 cells = assay: PARP cleavage assay (Western blotting), HCT116; type: cell-based; conditions: 0.5 μM, 6 hours, Western blotting
# Text: as §1
# MDA-MB-231 cancer cells = assay: Cell viability (MTT) assay, MDA-MB-231; type: cell-based; conditions: Homo sapiens; inhibiting the growth of MDA-MB-231 cancer cells, cell viability assay (Table 6)
# Method: as §2
# HCT116 cancer cells [2] = assay: Apoptosis assay, Annexin V-FITC/propidium iodide flow cytometry; type: cell-based; conditions: Homo sapiens, HCT-116, 6 hours, Annexin V-FITC/PI flow cytometry (Table 4)
# Method: HCT116 cancer cells plated at a density of 1×10^6 per well on six-well plates were treated with different concentration of test compounds for 6 hours, and then the suspension and the adherent cells were collected, stained with Annexin V-FITC for 15 minutes and with propodium iodide for 5 minutes, and analyzed immediately by cytoFLEX Flow Cytometry System (Beckman-Coulter, Miami, Fla., USA) using FITC and PC5.5 (Table 4).
# pBind-RXRa-LBD and Nur77 = assay: Mammalian one hybrid assay, Gal4-RXRa-LBD with Nur77; type: cell-based; conditions: cotransfection of pBind-RXRa-LBD and Nur77, Dual-Luciferase (FIG. 10)
# Method: (§3) HEK293T cells were co-transfected with pG5 Luciferase reporter together with the plasmid encoding RXRa-LBD fused with the Gal4 DNA-binding domain and other expression plasmids. After transfection, cells were treated with DMSO or a test compound, and assayed by using the Dual-Luciferase Reporter Assay System (Promega). Transfection efficiency was normalized to Renilla luciferase activity.
# (§4) To exclude the possibility that Compound 1 acted on RXRa, Glu453 and Glu456 in the RXRa activation function 2 (AF2) region were substituted with Ala and the resulting mutant, RXRa-LBD/E453,6A, was used.
# [3] = test system: Nur77 and pBind-RXRa-LBD-E453,6A; assay: Mammalian one hybrid assay, RXRa-LBD/E453,6A mutant with Nur77; type: cell-based; conditions: cells transfected with Nur77 and pBind-RXRa-LBD-E453,6A
# Method: as §3, §4
# [4] = test system: Nur77 interaction with Bcl-2; assay: Confocal microscopy colocalization of Nur77 with Bcl-2; type: cell-based
# [5] = test system: mTOR markers p-S6 and p-4EBP1; assay: mTOR inhibition: expression of mTOR markers; type: cell-based; conditions: MDA-MB-231 cells, 1 μM, 6 hours
# PyMT mammary tumor = assay: MMTV-PyMT mice breast cancer model; type: in vivo
# Method: Female MMTV-PyMT mice of 12 weeks old were randomly divided into two groups (n=7 each), treated with a daily oral dose of test compound for 18 days. Standard histopathological analysis of tumor tissue was performed (see Example A-19). Test compounds were dissolved in DMSO and diluted with normal saline containing 5.0% (V/V) Tween-80 to a final concentration 0.5 mg/ml. Normal saline with DMSO and 5.0% Tween-80 was employed as the vehicle control.
# 4 μm thick sections were deparaffinized and rehydrated using xylene and a graded series of ethanol (100, 95, 85, 75, 50%), followed by washing in PBS. Antigen retrieval was performed in 10 mM sodium citrate buffer (pH 6.0), which was microwaved at 100° C. for 20 minutes. After rinsed twice in PBS, sections were blocked at room temperature for 1 hour by using 10% normal goat serum, followed by incubation with anti-ki-67, anti-cleaved-caspase-3, overnight (at least 17 hours) at 4° C. Colors were developed with a DAB horseradish peroxidase color development kit.
# Nur77 [6] = assay: Cellular fractionation and immunostaining: mitochondrial targeting of Nur77; type: cell-based; conditions: immunostaining
# Method: (§5) For cellular fractionation, cells were lysed in cold buffer A (10 mM HEPES-KOH (pH 7.9), 1.5 mM MgCl2, 10 mM KCl, 0.5 mM dithiothreitol) with a cocktail of proteinase inhibitors on ice for 10 min as described. Cytoplasmic fraction was collected by centrifuging at 6000 rpm for 30 seconds. Pellets containing nuclei were resuspended in cold high-salt buffer C (20 mM HEPES-KOH (pH 7.9), 25% glycerol, 420 mM NaCl, 1.5 mM MgCl2, 0.2 mM EDTA, 0.5 mM dithiothreitol) with a cocktail of proteinase inhibitors on ice for 30 minutes.
# Nur77 [7] = target: T1, Nur77 (Homo sapiens, UniProt P22736); assay: as above; type: cell-based; conditions: mitochondria fractionation, 1μM
# T1 construct: expressed in transfected cells
# Method: as §5
# [8] = test system: Nur77 interaction with Bcl-2; assay: Cell-based co-immunoprecipitation of Nur77 and Bcl-2; conditions: Nur77 transfected in HeLa cells
# Method: Western blotting and co-immunopreciptations (co-IP) were performed. Briefly, cells transfected with or without expression vectors for Nur77 and Bcl-2 were treated with test compounds for 2 hours. The effect of compounds on the interaction of endogenous or transfected Nur77 and Bcl-2 was analyzed by co-immunoprecipitation using appropriate antibodies. Proteins immunoprecipitated from cells by an appropriate anti-Nur77 or anti-Bcl-2 antibody were analyzed by Western blotting.
# T1 sequence (P22736 whole entry): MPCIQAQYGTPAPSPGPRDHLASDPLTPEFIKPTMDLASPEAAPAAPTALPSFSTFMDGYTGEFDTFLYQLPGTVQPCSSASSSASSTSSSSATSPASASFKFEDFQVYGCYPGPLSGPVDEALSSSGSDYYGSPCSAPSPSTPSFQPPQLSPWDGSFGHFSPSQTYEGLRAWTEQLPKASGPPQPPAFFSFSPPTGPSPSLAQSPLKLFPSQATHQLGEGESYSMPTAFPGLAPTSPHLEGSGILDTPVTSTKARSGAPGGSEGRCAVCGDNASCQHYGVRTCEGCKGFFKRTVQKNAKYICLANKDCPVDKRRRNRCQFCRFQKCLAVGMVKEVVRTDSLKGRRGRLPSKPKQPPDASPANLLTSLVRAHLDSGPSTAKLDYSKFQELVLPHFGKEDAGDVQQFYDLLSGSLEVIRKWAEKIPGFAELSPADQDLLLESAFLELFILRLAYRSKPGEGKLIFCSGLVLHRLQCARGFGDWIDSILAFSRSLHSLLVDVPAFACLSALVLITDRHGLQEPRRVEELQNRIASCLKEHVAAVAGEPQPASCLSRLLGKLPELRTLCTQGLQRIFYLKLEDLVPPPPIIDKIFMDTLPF
SMILES,pIC50 (HCT116 cancer cells [1]),pIC50 (MDA-MB-231 cancer cells),pIC50 (HCT116 cancer cells [2]),PARP cleavage (MDA-MB-231 cells; 0.5 μM),further results
"COc1ccc([C+](c2c[nH]c3ccccc23)c2c[nH]c3ccccc23)cc1 [Compound 7, Bis(1H-indol-3-yl)(4-methoxyphenyl)methylium methanesulfonate]",5.30 to 6.30,–,5.30 to 6.30,–,–
"CC1=C(/C=C/C(C)=C\C=C\C(C)=C\C(=O)O)C(C)(C)CCC1 [Compound 9-cis-RA, 9-cis-RA, reference compound]",–,–,–,–,reporter transcriptional activity (pBind-RXRa-LBD and Nur77): strongly activate; reporter transcriptional activity [3]: failed to induce the reporter activity
"Cn1cc([C+](c2ccc(C(F)(F)F)cc2)c2c[nH]c3ccccc23)c2ccccc21 [Compound 28, (1-Methyl-1H-indol-3-yl)(1H-indol-3-yl)(4-(trifluoromethyl)phenyl)methylium methanesulfonate]",> 6.30,> 6.30,–,effectively induced PARP cleavage,"PARP cleavage (MDA-MB-231 cells; 1 μM): effectively induce PARP cleavage; colocalization of transfected GFP-Nur77 (and GFP-Nur77-LBD) with Bcl-2 [4]: promoted extensive colocalization; expression levels of mTOR markers p-S6 and p-4EBP1 [5]: reduced the expression levels; expression levels of mTOR markers p-S6 and p-mTOR in tumor (PyMT mammary tumor; 3 mg/kg): markedly reduced; growth of PyMT mammary tumor (PyMT mammary tumor; 3 mg/kg daily oral, 18 days): inhibited the growth of PyMT mammary tumor; Myc-Nur77-LBD colocalization with mitochondria (Nur77 [6]): colocalized extensively with the mitochondria; Myc-Nur77 in heavy membrane (HM) fraction (Nur77 [7]): accumulated in the mitochondria-enriched heavy membrane (HM) fraction; Nur77 interaction with Bcl-2 (Co-IP) [8]: interacted with Bcl-2"
"Fc1ccc2[nH]cc([C+](c3ccc(C(F)(F)F)cc3)c3c[nH]c4ccccc34)c2c1.[Cl-] [Compound 73, (5-Fluoro-1H-indol-3-yl)(1H-indol-3-yl)(4-(trifluoromethyl)phenyl)methylium chloride]",> 6.30,> 6.30,–,effectively induced PARP cleavage,PARP cleavage (MDA-MB-231 cells; 1 μM): effectively induce PARP cleavage; expression levels of mTOR markers p-S6 and p-4EBP1 [5]: reduced the expression levels
"O=C(O)c1ccc([C+](c2c[nH]c3ccccc23)c2c[nH]c3ccccc23)cc1 [Compound 82, Bis(1H-indol-3-yl)(4-carboxyphenyl)methylium methanesulfonate]",5.30 to 6.30,–,5.30 to 6.30,–,–

# More lines, main results first:
pIC50 (HCT116 cancer cells [1]),pIC50 (MDA-MB-231 cancer cells),pIC50 (HCT116 cancer cells [2]),SMILES,PARP cleavage (MDA-MB-231 cells; 0.5 μM),further results
≤ 5.30,≤ 5.30,–,"FC(F)(F)c1ccc(C(c2c[nH]c3ccccc23)c2c[nH]c3ccccc23)cc1 [Compound 1a, reference compound]",no effect,PARP cleavage (HCT116 cells): no effect
> 6.30,–,> 6.30,"Clc1ccc([C+](c2c[nH]c3ccccc23)c2c[nH]c3ccccc23)cc1 [Compound 5, Bis(1H-indol-3-yl)(4-chlorophenyl)methylium methanesulfonate]",–,–
> 6.30,–,> 6.30,"COC(=O)c1ccc([C+](c2c[nH]c3ccccc23)c2c[nH]c3ccccc23)cc1 [Compound 8, Bis(1H-indol-3-yl)(4-(methoxycarbonyl)phenyl)methylium methanesulfonate]",–,–

# Reference: US20210024499A1, “OXIDIZED BIS(3-INDOLYL)METHANES AND USES THEREOF” (Sanford Burnam Prebys Medical Discovery Institute, priority 2018, published 2021)
